Source: EP4810052A2, “HCRHR2 SELECTIVE POLYPEPTIDES” (Gubra A/S, priority 2023, dated 2026)
Where two headings read alike, the source gives them in different places. Starred links: 1 amine or outer side, 2 acyl side, 3 side chain; linkers in the order of their positions; H or OH if unused. Non-standard residues stand in square brackets, D forms with d. Residues, ends and D or L forms follow the SMILES beside them. Groups on a side chain read outwards from the residue. *: point of attachment. C20 diacid = O=C(O)CCCCCCCCCCCCCCCCCCC(=O)*; γGlu = O=C(O)[C@H](CCC(=O)[*:2])N[*:1]; NMeI = CC[C@H](C)[C@H](NC)C(=O)O; Nle = CCCC[C@H](N)C(=O)O; AEEA = NCCOCCOCC(=O)O; Aib = CC(C)(N)C(=O)O

Assays:
hCRHR2 = target: T1, hCRHR2 (Homo sapiens, UniProt Q13324); assay: HTRF cAMP assay, determination of hCRHR2 potency (peptide libraries 5 conc., purified peptides 11 conc.); format: cell-based
T1 sequence (Q13324 1-411): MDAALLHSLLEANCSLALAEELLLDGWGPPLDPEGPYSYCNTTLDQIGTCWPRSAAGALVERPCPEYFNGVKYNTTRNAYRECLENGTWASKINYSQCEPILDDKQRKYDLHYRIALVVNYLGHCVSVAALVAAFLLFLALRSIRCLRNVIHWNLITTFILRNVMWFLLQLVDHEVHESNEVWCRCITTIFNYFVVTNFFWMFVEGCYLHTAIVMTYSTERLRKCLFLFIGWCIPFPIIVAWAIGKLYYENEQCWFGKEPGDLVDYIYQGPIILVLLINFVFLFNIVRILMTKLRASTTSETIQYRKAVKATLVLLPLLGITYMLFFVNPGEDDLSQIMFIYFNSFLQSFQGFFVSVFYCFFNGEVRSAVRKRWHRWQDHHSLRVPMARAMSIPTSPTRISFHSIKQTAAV
Method in brief: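 CHO-K1 cells stably expressing human CRHR2, thawed from frozen stocks just before use and run in suspension; cAMP measured by competitive HTRF immunoassay (cryptate anti-cAMP, d2-cAMP). Agonist peptides tested at 5 (libraries) or 11 (purified) concentrations; EC50 from sigmoid variable-slope nonlinear regression.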

hCRHR1 = target: T2, hCRHR1 (Homo sapiens, UniProt P34998); assay: HTRF cAMP assay, determination of hCRHR1 potency (peptide libraries 5 conc., purified peptides 11 conc.); format: cell-based
T2 sequence (P34998 24-415): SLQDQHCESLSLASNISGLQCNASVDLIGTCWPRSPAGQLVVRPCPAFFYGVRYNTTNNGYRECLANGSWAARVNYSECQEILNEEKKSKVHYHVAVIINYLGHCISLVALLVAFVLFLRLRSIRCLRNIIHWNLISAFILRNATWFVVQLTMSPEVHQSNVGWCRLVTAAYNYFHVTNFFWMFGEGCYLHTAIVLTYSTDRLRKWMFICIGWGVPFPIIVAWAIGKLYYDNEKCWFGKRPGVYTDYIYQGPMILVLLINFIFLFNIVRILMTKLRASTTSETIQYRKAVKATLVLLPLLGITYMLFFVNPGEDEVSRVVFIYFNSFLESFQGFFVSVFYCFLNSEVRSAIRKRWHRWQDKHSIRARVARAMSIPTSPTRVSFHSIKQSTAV
Method in brief: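 CHO-K1 cells stably expressing human CRHR1, thawed from frozen stocks just before use, were stimulated in suspension with agonist peptides. cAMP was measured by HTRF competitive immunoassay (cryptate anti-cAMP antibody vs d2-cAMP).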

[1] = library peptides, matched molecular pairs L vs Nle in position X^38, read-out: Potency hCRHR2 pEC50 (converted)
[2] = library peptides, matched molecular pairs L vs Nle in position X^38, read-out: Potency hCRHR1 pEC50 (converted)

SMILES | EC50 (hCRHR2; [1]) [nM] | EC50 (hCRHR1; [2]) [nM] | also measured
CCCC[C@H](NC(=O)[C@@H](NC(=O)[C@H](CCC(=O)O)NC(=O)[C@H](C)NC(=O)[C@H](CC(N)=O)NC(=O)[C@@H](NC(=O)[C@H](CCCCNC(=O)COCCOCCNC(=O)COCCOCCNC(=O)CC[C@H](NC(=O)CC[C@H](NC(=O)CCCCCCCCCCCCCCCCCCC(=O)O)C(=O)O)C(=O)O)NC(=O)[C@H](C)NC(=O)[C@H](CCC(N)=O)NC(=O)[C@H](CCC(=O)O)NC(=O)[C@H](CCCNC(=N)N)NC(=O)[C@H](CCC(N)=O)NC(=O)[C@H](C)NC(=O)[C@H](CCCNC(=N)N)NC(=O)[C@H](C)NC(=O)[C@H](CCCNC(=N)N)NC(=O)[C@H](C)NC(=O)[C@H](CCC(N)=O)NC(=O)[C@H](CCC(=O)O)NC(=O)[C@H](CC(C)C)NC(=O)[C@H](CC(C)C)NC(=O)[C@@H](NC(=O)[C@H](CCC(N)=O)NC(=O)[C@H](CC(C)C)NC(=O)[C@H](CC(C)C)NC(=O)CNC(=O)[C@@H](NC(=O)[C@@H]1CCCN1C(=O)[C@@H](NC(=O)[C@H](CC(=O)O)NC(=O)[C@H](CC(C)C)NC(=O)[C@H](CO)NC(=O)[C@H](CC(C)C)NC(=O)[C@@H](NC(=O)[C@@H](N)[C@@H](C)CC)C(C)C)C(C)C)[C@@H](C)CC)[C@@H](C)CC)[C@@H](C)O)[C@@H](C)CC)C(=O)N[C@@H](C)C(=O)N[C@@H](CCC(=O)O)C(=O)N[C@H](C(N)=O)[C@@H](C)CC [compound 65] (H-IVLSLDVPIGLLQILLEQARARAQREQAK([AEEA-AEEA-γGlu-γGlu-C20 diacid])TNAEI[Nle]AEI-NH2) | 0.1 | 158 | –
CCCC[C@H](NC(=O)[C@@H](NC(=O)[C@H](CCC(=O)O)NC(=O)[C@H](C)NC(=O)[C@H](CC(N)=O)NC(=O)[C@@H](NC(=O)[C@H](CCCCNC(=O)COCCOCCNC(=O)COCCOCCNC(=O)CC[C@H](NC(=O)CC[C@H](NC(=O)CCCCCCCCCCCCCCCCCCC(=O)O)C(=O)O)C(=O)O)NC(=O)[C@H](C)NC(=O)[C@H](CCC(=O)O)NC(=O)[C@H](CCC(=O)O)NC(=O)[C@H](CCCNC(=N)N)NC(=O)[C@H](C)NC(=O)[C@H](C)NC(=O)[C@H](CCCNC(=N)N)NC(=O)[C@H](C)NC(=O)[C@H](CCCNC(=N)N)NC(=O)[C@H](C)NC(=O)[C@H](CCC(N)=O)NC(=O)[C@H](CCC(=O)O)NC(=O)[C@H](CC(C)C)NC(=O)[C@H](CC(C)C)NC(=O)[C@@H](NC(=O)[C@H](CCC(N)=O)NC(=O)[C@H](CC(C)C)NC(=O)[C@H](CC(C)C)NC(=O)CNC(=O)[C@@H](NC(=O)[C@@H]1CCCN1C(=O)[C@@H](NC(=O)[C@H](CC(=O)O)NC(=O)[C@H](CC(C)C)NC(=O)[C@H](CO)NC(=O)[C@H](CC(C)C)NC(=O)[C@@H](NC(=O)[C@@H](N)[C@@H](C)CC)C(C)C)C(C)C)[C@@H](C)CC)[C@@H](C)CC)[C@@H](C)O)[C@@H](C)CC)C(=O)N[C@@H](C)C(=O)N[C@@H](CCC(=O)O)C(=O)N[C@H](C(N)=O)[C@@H](C)CC [compound 75] (H-IVLSLDVPIGLLQILLEQARARAAREEAK([AEEA-AEEA-γGlu-γGlu-C20 diacid])TNAEI[Nle]AEI-NH2) | 0.794 | 158000 | –
CCCC[C@H](NC(=O)[C@@H](NC(=O)[C@H](CCC(=O)O)NC(=O)[C@H](C)NC(=O)[C@H](CC(N)=O)NC(=O)[C@@H](NC(=O)[C@H](CCCCNC(=O)COCCOCCNC(=O)COCCOCCNC(=O)CC[C@H](NC(=O)CC[C@H](NC(=O)CCCCCCCCCCCCCCCCCCC(=O)O)C(=O)O)C(=O)O)NC(=O)[C@H](C)NC(=O)[C@H](CCC(=O)O)NC(=O)[C@H](CCC(N)=O)NC(=O)[C@H](CCCNC(=N)N)NC(=O)[C@H](CC(C)C)NC(=O)[C@H](C)NC(=O)[C@H](CCCNC(=N)N)NC(=O)[C@H](C)NC(=O)[C@H](CCCNC(=N)N)NC(=O)[C@H](C)NC(=O)[C@H](CCC(N)=O)NC(=O)[C@H](CCC(=O)O)NC(=O)[C@H](CC(C)C)NC(=O)[C@H](CC(C)C)NC(=O)[C@@H](NC(=O)[C@H](CCC(N)=O)NC(=O)[C@H](CC(C)C)NC(=O)[C@H](CC(C)C)NC(=O)CNC(=O)[C@@H](NC(=O)[C@@H]1CCCN1C(=O)[C@@H](NC(=O)[C@H](CC(=O)O)NC(=O)[C@H](CC(C)C)NC(=O)[C@H](CO)NC(=O)[C@H](CC(C)C)NC(=O)[C@@H](NC(=O)[C@@H](N)[C@@H](C)CC)C(C)C)C(C)C)[C@@H](C)CC)[C@@H](C)CC)[C@@H](C)O)[C@@H](C)CC)C(=O)N[C@@H](C)C(=O)N[C@@H](CCC(=O)O)C(=O)N[C@H](C(N)=O)C(C)C [SEQ ID NO: 38] (H-IVLSLDVPIGLLQILLEQARARALRQEAK([AEEA-AEEA-γGlu-γGlu-C20 diacid])TNAEI[Nle]AEV-NH2) | – | – | EC50 (hCRHR2; Table 3, matched molecular pairs X^38 L vs Nle, peptide library of Example 4, read-out: hCRHR2 pEC50 (converted)): 0.398 nM; EC50 (hCRHR1; Table 3, matched molecular pairs X^38 L vs Nle, peptide library of Example 4, read-out: hCRHR1 pEC50 (converted)): 63100 nM
CCCC[C@H](NC(=O)[C@@H](NC(=O)[C@H](CCC(=O)O)NC(=O)C(C)(C)NC(=O)[C@H](CC(N)=O)NC(=O)[C@@H](NC(=O)[C@H](CCCCNC(=O)COCCOCCNC(=O)COCCOCCNC(=O)CC[C@H](NC(=O)CC[C@H](NC(=O)CCCCCCCCCCCCCCCCCCC(=O)O)C(=O)O)C(=O)O)NC(=O)[C@H](C)NC(=O)[C@H](CCC(N)=O)NC(=O)[C@H](CCC(=O)O)NC(=O)[C@H](CCCNC(=N)N)NC(=O)[C@H](C)NC(=O)[C@H](C)NC(=O)[C@H](CCCNC(=N)N)NC(=O)[C@H](C)NC(=O)[C@H](CCCNC(=N)N)NC(=O)[C@H](C)NC(=O)[C@H](CCC(N)=O)NC(=O)[C@H](CCCNC(=N)N)NC(=O)[C@H](CC(C)C)NC(=O)[C@H](CC(C)C)NC(=O)[C@@H](NC(=O)[C@H](CCC(N)=O)NC(=O)[C@H](CC(C)C)NC(=O)[C@H](CC(C)C)NC(=O)CNC(=O)[C@@H](NC(=O)[C@@H]1CCCN1C(=O)[C@@H](NC(=O)[C@H](CC(=O)O)NC(=O)[C@H](CC(C)C)NC(=O)[C@H](CO)NC(=O)[C@H](CC(C)C)NC(=O)[C@@H](NC(=O)[C@@H](NC)[C@@H](C)CC)C(C)C)C(C)C)[C@@H](C)CC)[C@@H](C)CC)[C@@H](C)O)[C@@H](C)CC)C(=O)N[C@@H](C)C(=O)N[C@@H](CCC(=O)O)C(=O)N[C@H](C(N)=O)C(C)C [compound 198] (H-[NMeI]VLSLDVPIGLLQILLRQARARAAREQAK([AEEA-AEEA-γGlu-γGlu-C20 diacid])TN[Aib]EI[Nle]AEV-NH2) | – | – | EC50 (hCRHR2; Table 4, library peptides having X^38 = Nle, read-out: hCRHR2 pEC50 (converted)): 0.0316 nM; EC50 (hCRHR1; Table 4, library peptides having X^38 = Nle, read-out: hCRHR1 pEC50 (converted)): 63100 nM
CC[C@H](C)[C@H](N)C(=O)N[C@H](C(=O)N[C@@H](CC(C)C)C(=O)N[C@@H](CO)C(=O)N[C@@H](CC(C)C)C(=O)N[C@@H](CC(=O)O)C(=O)N[C@H](C(=O)N1CCC[C@H]1C(=O)N[C@H](C(=O)NCC(=O)N[C@@H](CC(C)C)C(=O)N[C@@H](CC(C)C)C(=O)N[C@@H](CCC(N)=O)C(=O)N[C@H](C(=O)N[C@@H](CC(C)C)C(=O)N[C@@H](CC(C)C)C(=O)N[C@@H](CO)C(=O)N[C@@H](CCC(N)=O)C(=O)N[C@@H](C)C(=O)N[C@@H](CCCNC(=N)N)C(=O)N[C@@H](C)C(=O)N[C@@H](CCCNC(=N)N)C(=O)N[C@@H](C)C(=O)N[C@@H](C)C(=O)N[C@@H](CCCNC(=N)N)C(=O)N[C@@H](CCC(=O)O)C(=O)N[C@@H](CCC(N)=O)C(=O)N[C@@H](C)C(=O)N[C@@H](CCCCNC(=O)COCCOCCNC(=O)COCCOCCNC(=O)CC[C@H](NC(=O)CC[C@H](NC(=O)CCCCCCCCCCCCCCCCCCC(=O)O)C(=O)O)C(=O)O)C(=O)N[C@H](C(=O)N[C@@H](CC(N)=O)C(=O)N[C@@H](C)C(=O)N[C@@H](CCC(=O)O)C(=O)N[C@H](C(=O)N[C@@H](CC(C)C)C(=O)N[C@@H](C)C(=O)N[C@@H](CCC(=O)O)C(=O)N[C@H](C(N)=O)[C@@H](C)CC)[C@@H](C)CC)[C@@H](C)O)[C@@H](C)CC)[C@@H](C)CC)C(C)C)C(C)C [compound 88] (H-IVLSLDVPIGLLQILLSQARARAAREQAK([AEEA-AEEA-γGlu-γGlu-C20 diacid])TNAEILAEI-NH2) | 0.631 | 39800 | –
